From US20250282795A1, “EGFR Inhibitors in cancer treatment” (Celyn Therapeutics, Inc., priority 2022, published 2025)
Where two headings read alike, the source gives them in different places.

Assays:
[1] = test system: Ba/F3 (EGFRwt); test: Cellular growth inhibition assay (CellTiter-Glo), Ba/F3 (EGFRwt); assay type: cell-based; conditions: Mus musculus, BaF3, 72 h; Ba/F3 (Wild type) with 10 ng/ml rhEGF, 3 days of incubation
Procedure: Example E. Cellular Growth Inhibition Assay
Ba/F3(Empty vector) (Signosis), Ba/F3(Wild type) (Signosis), Ba/F3(L^858R+T790M) (Signosis), Ba/F3(A767_dupASV) (Signosis), Ba/F3(D770_N771insSVD) (Signosis), Ba/F3(H773_V774insNPH) (Signosis) were seeded at a density of 4000 cells per well in a CellBIND® 384-well Flat Clear Bottom Black Polystyrene Microplates (Coming, USA, Cat #3770) in 45 μl total volume of RPMI (PanEco, Cat #C330, Russia) with […] (HyClone, Cat #SV30160.03) and with 10 ng/ml rmIL-3 (RD systems, USA, Cat #403-ML-025) (for BaBF3(Empty vector)) and with 10 ng/ml rhEGF (ThermoFisher, USA, Cat #PHG0311L) (for BaCF3(Wild type)). 500× compounds solutions in DMSO (Sigma Cat #D2650) were prepared into Cmpnds plate (DiamondWell Plate, Axigen, Cat #P-384-120SQ-C—S) and DMSO only control was included. 1.l of 500× compounds (Cmpnds plate) was added to 49 µl of culture medium into Dilution plate (Diamond Well Plate, Axigen, Cat #P-384-120SQ-C—S), mixed and then 5 μl of 10× compounds solutions were transferred to cells followed by centrifugation at 100 g for 1 min. Final DMSO concentration was 0.2% o. After 3 days of incubation 10.l of CellTiter-Glo (Promega, CAT #G7572) were added to the cells, plate was centrifuged at 100 g for 1 min and luminescence signal was measured using Microplate Reader (CLARIOStar).

[2] = test system: Ba/F3 (A767_dupASV); test: Cellular growth inhibition assay (CellTiter-Glo), Ba/F3 (A767_dupASV); assay type: cell-based; conditions: Mus musculus, BaF3, 72 h; 3 days of incubation; read-out: Ba/F3 (A767_dup ASV) CC50
Outline: (§1)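 Ba/F3 cells expressing the EGFR variants were seeded at 4000 cells/well in RPMI with FBS, with 10 ng/ml rhEGF added for the wild-type line, and treated with compound at 0.2% final DMSO. Viability was read by CellTiter-Glo luminescence after 3 days.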

[3] = molecular target: EGFR (D770_N771insNPG) (Homo sapiens (Human), UniProt P00533, INS770NPG); test: Potency of EGFR (D770_N771insNPG) enzymatic activity inhibition (ADP-Glo luminescence); assay type: biochemical; conditions: recombinant EGFR (D770_N771insNPG) 1.5 nM, Poly(Glu, Tyr) substrate, ATP, 1 h at rt
EGFR (D770_N771insNPG), sequence (P00533 other isoform, or with tags, fused parts or gaps del 1-694/ins NPG behind 770 limits assumed): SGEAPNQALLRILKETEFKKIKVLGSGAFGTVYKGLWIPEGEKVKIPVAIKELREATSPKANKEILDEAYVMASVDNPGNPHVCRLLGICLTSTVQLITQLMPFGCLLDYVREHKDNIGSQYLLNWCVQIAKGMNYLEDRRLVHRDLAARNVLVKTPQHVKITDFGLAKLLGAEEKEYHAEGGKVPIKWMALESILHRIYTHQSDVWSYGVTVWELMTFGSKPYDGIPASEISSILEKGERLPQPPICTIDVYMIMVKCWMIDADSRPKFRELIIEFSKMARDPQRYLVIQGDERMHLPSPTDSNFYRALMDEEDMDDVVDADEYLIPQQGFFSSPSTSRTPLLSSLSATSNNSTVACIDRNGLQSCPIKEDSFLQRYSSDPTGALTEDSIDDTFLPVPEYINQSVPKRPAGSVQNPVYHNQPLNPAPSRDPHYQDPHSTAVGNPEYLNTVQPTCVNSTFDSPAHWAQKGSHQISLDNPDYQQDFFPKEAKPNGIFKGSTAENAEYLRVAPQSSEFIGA
Procedure: Example B. Primary Assay Used to Determine Potency of EGFR (D770_N771insNPG) Enzymatic Activity Inhibition
Compounds activity was determined using recombinant EGFR (D770 N771insNPG) protein (SignalChem, #E10-132GG-10) and Poly(Glu, Tyr) substrate (Sigma-Aldrich, #P0275) in an in vitro enzymatic reaction. The enzymatic assay used to determine activity was a Luminescence assay using a Microplate Reader ClarioStar Plus. The enzymatic reaction was carried out in assay buffer (40 mM TRIS-HCl pH 7.4-7.6, 20 mM MgCl2, 2.5 mM MnCl2, 0.05 mM DTT, 0.1 mg/ml BSA). The compounds were dispensed on a 384 well Diamond Well Plate (Axigen, Cat #P-384-120SQ-C—S) using the Biomek FX liquid handling system at 80× solutions of compounds in DMSO. 2× Protein-Substrate mix (final concentration 1.5 nM of EGFR (D770_N771insNPG) and 50 ng/μl of Poly(Glu, Tyr)) was prepared in 1× Assay buffer and 4 µl of mixture per well was added into 384w white Reaction plate with NBS (Coming, Cat #4513). 4 μl of Poly(Glu, Tyr) substrate w/o EGFR in 1× buffer was used for negative control. Plates were centrifuged for 1 min at 200 g. Next step the Compounds were added to Reaction plate using Biomek station via following steps: 1 μl of 80× compounds (in DMSO) were mixed thoroughly with 39 μl of 2× 10 μM ATP in Assay Buffer, then 4 μl of this mixture was added to Reaction plate with 4 μl of Protein-Substrate mix. Plates were centrifuged for 1 min at 200 g and incubated for 1 h at rt. Next 4 μL of ADP-Glo reagent (Promega, ADP-Glo™ Kinase Assay, Cat #V9102) per well was added. Plates were incubated for 30 min at rt. Then 8 μL of Kinase detection reagent (Promega, ADP-Glo™ Kinase Assay, Cat #V9102) per well was added and the Luminescence was measured using Microplate Reader. The % inhibition was then used to calculate the EC50 values. The values of EC50 shown as a letters A-E, where: A<0.001 μM; 0.001 μM<B<0.005 μM; 0.005 μM<C<0.01 μM; 0.01<D<0.05 μM; E>0.05.

[4] = Cellular growth inhibition assay (CellTiter-Glo), Ba/F3 (Empty vector); assay type: cell-based; conditions: mouse, Ba/F3 cells with empty vector; Ba/F3 (Empty vector) with 10 ng/ml rmIL-3, 3 days of incubation
Outline: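 Ba/F3 cells carrying an empty vector were plated in 384-well black clear-bottom plates at 4000 cells per well in 45 μl RPMI containing FBS and 10 ng/ml rmIL-3. Compounds diluted from DMSO stocks were added as 5 μl of 10× solution, giving 0.2% DMSO. After 3 days, CellTiter-Glo was added and luminescence measured.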

[5] = test system: Ba/F3 (D770_N771insSVD); test: Cellular growth inhibition assay (CellTiter-Glo), Ba/F3 (D770_N771insSVD); assay type: cell-based; conditions: Mus musculus, BaF3, 72 h; 3 days of incubation; read-out: Ba/F3 (D770_N771 insSVD) CC50
Outline: as §1

[6] = molecular target: EGFR (WT) (Homo sapiens (Human), UniProt P00533); test: Potency of EGFR enzymatic activity inhibition (WT) (ADP-Glo luminescence); assay type: biochemical; conditions: recombinant EGFR (WT) 4 nM, Poly(Glu, Tyr) substrate, ATP, 1 h at rt
EGFR (WT), sequence (P00533 25-1210): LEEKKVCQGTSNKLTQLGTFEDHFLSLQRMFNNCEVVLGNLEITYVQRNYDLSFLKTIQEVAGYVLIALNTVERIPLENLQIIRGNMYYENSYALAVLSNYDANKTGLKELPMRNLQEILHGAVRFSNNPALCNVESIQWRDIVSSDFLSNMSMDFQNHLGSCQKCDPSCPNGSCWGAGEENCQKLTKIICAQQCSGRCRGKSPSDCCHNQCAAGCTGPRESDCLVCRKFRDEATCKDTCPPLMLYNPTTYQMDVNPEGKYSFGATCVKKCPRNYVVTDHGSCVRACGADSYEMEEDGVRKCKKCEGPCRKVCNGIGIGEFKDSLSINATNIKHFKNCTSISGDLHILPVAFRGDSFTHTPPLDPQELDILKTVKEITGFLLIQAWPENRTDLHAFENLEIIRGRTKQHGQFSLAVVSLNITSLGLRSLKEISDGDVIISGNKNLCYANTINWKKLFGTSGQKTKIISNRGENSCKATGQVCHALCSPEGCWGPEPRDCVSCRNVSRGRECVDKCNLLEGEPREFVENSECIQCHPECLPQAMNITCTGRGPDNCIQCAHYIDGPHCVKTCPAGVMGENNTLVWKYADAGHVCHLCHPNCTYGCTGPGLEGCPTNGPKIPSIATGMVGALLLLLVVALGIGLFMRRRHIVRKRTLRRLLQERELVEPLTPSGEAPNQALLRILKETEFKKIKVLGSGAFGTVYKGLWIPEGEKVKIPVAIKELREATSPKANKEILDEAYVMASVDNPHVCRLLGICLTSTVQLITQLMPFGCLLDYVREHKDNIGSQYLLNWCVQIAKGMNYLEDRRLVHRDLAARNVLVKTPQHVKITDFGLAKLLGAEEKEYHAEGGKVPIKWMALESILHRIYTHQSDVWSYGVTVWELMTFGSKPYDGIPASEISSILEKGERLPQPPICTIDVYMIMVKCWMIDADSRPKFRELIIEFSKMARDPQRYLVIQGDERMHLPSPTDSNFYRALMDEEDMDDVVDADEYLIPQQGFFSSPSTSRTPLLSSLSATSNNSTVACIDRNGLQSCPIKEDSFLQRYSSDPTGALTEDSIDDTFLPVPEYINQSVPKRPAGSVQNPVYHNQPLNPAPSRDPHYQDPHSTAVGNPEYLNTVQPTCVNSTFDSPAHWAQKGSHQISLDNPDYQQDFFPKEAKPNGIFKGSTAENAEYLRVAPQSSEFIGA
Procedure: Example D. Primary Assay Used to Determine Potency of EGFR enzymatic activity Inhibition (WT)
Compound activity was determined using recombinant EGFR protein (SignalChem, #E10-112G-10) and Poly(Glu, Tyr) substrate (Sigma-Aldrich, #P0275) in an in vitro enzymatic reaction. The enzymatic assay used to determine activity was a Luminescence assay using a Microplate Reader ClarioStar Plus. The enzymatic reaction was carried out in assay buffer (40 mM TRIS-HCl pH 7.4-7.6, 20 mM MgCl2, 2.5 mM MnCl2, 0.05 mM DTT, 0.1 mg/ml BSA). The compounds were dispensed on a 384 well Diamond Well Plate (Axigen, Cat #P-384-120SQ-C—S) using the Biomek FX liquid handling system at 80× solutions of compounds in DMSO. 2× Protein-Substrate mix (final concentration 4 nM of EGFR and 50 ng/μl of Poly(Glu, Tyr)) was prepared in 1× Assay buffer and 4 μl of mixture per well was added into 384w white Reaction plate with NBS (Coming, Cat #4513). 4 μl of Poly(Glu, Tyr) substrate w/o EGFR in 1× buffer was used for negative control. Plates were centrifuged for 1 min at 200 g. Next step the Compounds were added to Reaction plate using Biomek station via following steps: 1 μl of 80× compounds (in DMSO) were mixed thoroughly with 39 μl of 2× 10 μM ATP in Assay Buffer, then 4 μl of this mixture was added to Reaction plate with 4 μl of Protein-Substrate mix. Plates were centrifuged for 1 min at 200 g and incubated for 1 h at rt. Next 4 μL of ADP-Glo reagent (Promega, ADP-Glo™ Kinase Assay, Cat #V9102) per well was added. Plates were incubated for 30 min at rt. Then 8 μL of Kinase detection reagent (Promega, ADP-Glo™ Kinase Assay, Cat #V9102) per well was added and the Luminescence was measured using Microplate Reader. The % inhibition was then used to calculate the EC50 values. The results for certain compounds are presented in the Table D. The values of EC50 shown as a letters A-E, where: A<0.001 μM; 0.001 μM<B<0.005 μM; 0.005 μM<C<

[7] = test system: Ba/F3 (H773_V774insSVD); test: Cellular growth inhibition assay (CellTiter-Glo), Ba/F3 (H773_V774insSVD); assay type: cell-based; conditions: Mus musculus, BaF3, 72 h; 3 days of incubation; read-out: Ba/F3 (H773_V774 insSVD) CC50
[8] = test system: Ba/F3 (L858R + T790M); test: Cellular growth inhibition assay (CellTiter-Glo), Ba/F3 (L858R+T790M); assay type: cell-based; conditions: Mus musculus, BaF3, 72 h; 3 days of incubation
Outline: as §1

[9] = DCM
[10] = rcm bond, 14-membered ring, Grubbs II (12 mol%), 10.0 mM, 50.0 °C

Row | Compound | CC50 [1] [nM] | CC50 [2] [nM] | EC50 [3] [nM] | CC50 at 3 days [4] [nM] | CC50 [5] [nM] | EC50 [6] [nM] | CC50 [7] [nM] | CC50 [8] [nM] | ring closure, isolated yield [9, 10] [%] | ring closure, isolated yield ([9]; from C=CCCOc1cnccc1-c1[nH]c2c(c1Nc1cccc(F)c1OC)C(=O)NCC2CC=C, rcm bond, 12-membered ring, Grubbs II (15 mol%), 10.0 mM, 50.0 °C) [%] | ring closure, isolated yield ([9]; amine bond, 14-membered ring, STAB/DIEA, 190.0 mM, 25.0 °C) [%]
1 | COc1c(F)cccc1Nc1c2[nH]c3c1C(=O)NC[C@@H]3CCCCOCCOc1cnccc1-2 [Compound 115] | 100 to 1000 | 0.1 to 1 | 1 to 5 | > 10000 | 10 to 100 | 1 to 5 | 10 to 100 | 100 to 1000 | – | – | –
2 | (13Z)-23-[(3-fluoro-2-methoxyphenyl)amino]-8,11-dioxa-5,18,22-triazatetracyclo[18.2.10^2,7.0^16,21]tricosa-1(23),2,4,6,13,20-hexaen-19-one | – | – | – | – | – | – | – | – | 4 | – | –
3 | COc1c(F)cccc1Nc1c2[nH]c3c1C(=O)NCC3C/C=C/COCCOc1cnccc1-2 (centres unmarked) [Compound 99, (13E)-23-[(3-Fluoro-2-methoxyphenyl)amino]-8,11-dioxa-5,18,22-tniazatetracyclo[18.2.1.0^2,7.0^16′2]tricosa-1(23),2,4,6,13,20-hexaen-19-one] | 10 to 100 | 1 to 10 | 1 to 5 | > 10000 | 10 to 100 | 1 to 5 | 100 to 1000 | 100 to 1000 | – | – | –
4 | COc1c(F)cccc1Nc1c2[nH]c3c1C(=O)NCC3CC=CCCOc1cnccc1-2 (centres unmarked) | – | – | – | – | – | – | – | – | – | 71 | –
5 | COc1c(F)cccc1Nc1c2[nH]c3c1C(=O)NCC3C/C=C\COCCOc1cnccc1-2 (centres unmarked) [Compound 104, (13Z)-23-[(3-fluoro-2-methoxyphenyl)amino]-8,11-dioxa-5,18,22-triazatetracyclo[18.2.10^2,7.0^16,21]tricosa-1(23),2,4,6,13,20-hexaen-19-one] | 100 to 1000 | 0.1 to 1 | ≤ 1 | > 10000 | 10 to 100 | 1 to 5 | 100 to 1000 | 100 to 1000 | – | – | –
6 | COc1c(F)cccc1Nc1c2[nH]c3c1C(=O)NC[C@H]3CCCCOCCOc1cnccc1-2 [Compound 114, (16R)-23-[(3-Fluoro-2-methoxyphenyl)amino]-8,11-dioxa-5,18,22-triazatetracyclo[18.2.1.0^2,7.0^16,21]tricosa-1(23),2,4,6,20-pentaen-19-one] | 100 to 1000 | 0.1 to 1 | 1 to 5 | > 10000 | 10 to 100 | 1 to 5 | 100 to 1000 | 100 to 1000 | – | – | –
7 | COc1c(F)cccc1Nc1c2[nH]c3c1C(=O)NCC3CCCCOCCOc1cnccc1-2 (centres unmarked) [Compound 100, 23-[(3-Fluoro-2-methoxyphenyl)amino]-8,11-dioxa-5,18,22-triazatetracyclo[18.2.1.0^2,7.0^16,21]tricosa-1(23),2,4,6,20-pentaen-19-one] | 10 to 100 | 1 to 10 | 1 to 5 | > 10000 | 10 to 100 | ≤ 1 | 10 to 100 | 100 to 1000 | – | – | –
8 | 19-[(3-Fluoro-2-methoxyphenyl)amino]-7,8,10,11,12,12a,13,14-octahydro-6H-7,9-methano-16,18-methenodipyrido[3,4-b:4′,3′-f][1,5,11]oxadiazacyclotetradecin-15(17H)-one | – | – | – | – | – | – | – | – | – | – | 36
9 | (13E)-23-[(3-Fluoro-2-methoxyphenyl)amino]-8,11-dioxa-5,18,22-tniazatetracyclo[18.2.1.0^2,7.0^16′2]tricosa-1(23),2,4,6,13,20-hexaen-19-one | – | – | – | – | – | – | – | – | 16 | – | –
